Source: patent publication US20020026053A1, “Novel 3-(substituted) -2- indolinones compounds and use thereof as inhibitors of protein kinase activity” (priority 1997, published 2002)

Biological target: T1, Met receptor (EGFR/Met chimeric cells, EMR) (Homo sapiens, UniProt P08581)
T1 construct: expressed in transfected cells; the other entry of the earlier key: EGFR (P00533, Epidermal growth factor receptor)
Test: Met Autophosphorylation Assay
Type: biochemical
How it was run: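 Transiently transfected EGFR/Met chimeric (EMR) cells were lysed in HNTG with 1 mM PMSF. Met was captured on plates coated with goat anti-rabbit IgG, then rabbit anti-Met (C-28), using 90 μg lysate/100 μl for 60 min at room temperature. Phosphotyrosine was read by ELISA.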

T1 sequence (P08581 with tags, fused parts or gaps): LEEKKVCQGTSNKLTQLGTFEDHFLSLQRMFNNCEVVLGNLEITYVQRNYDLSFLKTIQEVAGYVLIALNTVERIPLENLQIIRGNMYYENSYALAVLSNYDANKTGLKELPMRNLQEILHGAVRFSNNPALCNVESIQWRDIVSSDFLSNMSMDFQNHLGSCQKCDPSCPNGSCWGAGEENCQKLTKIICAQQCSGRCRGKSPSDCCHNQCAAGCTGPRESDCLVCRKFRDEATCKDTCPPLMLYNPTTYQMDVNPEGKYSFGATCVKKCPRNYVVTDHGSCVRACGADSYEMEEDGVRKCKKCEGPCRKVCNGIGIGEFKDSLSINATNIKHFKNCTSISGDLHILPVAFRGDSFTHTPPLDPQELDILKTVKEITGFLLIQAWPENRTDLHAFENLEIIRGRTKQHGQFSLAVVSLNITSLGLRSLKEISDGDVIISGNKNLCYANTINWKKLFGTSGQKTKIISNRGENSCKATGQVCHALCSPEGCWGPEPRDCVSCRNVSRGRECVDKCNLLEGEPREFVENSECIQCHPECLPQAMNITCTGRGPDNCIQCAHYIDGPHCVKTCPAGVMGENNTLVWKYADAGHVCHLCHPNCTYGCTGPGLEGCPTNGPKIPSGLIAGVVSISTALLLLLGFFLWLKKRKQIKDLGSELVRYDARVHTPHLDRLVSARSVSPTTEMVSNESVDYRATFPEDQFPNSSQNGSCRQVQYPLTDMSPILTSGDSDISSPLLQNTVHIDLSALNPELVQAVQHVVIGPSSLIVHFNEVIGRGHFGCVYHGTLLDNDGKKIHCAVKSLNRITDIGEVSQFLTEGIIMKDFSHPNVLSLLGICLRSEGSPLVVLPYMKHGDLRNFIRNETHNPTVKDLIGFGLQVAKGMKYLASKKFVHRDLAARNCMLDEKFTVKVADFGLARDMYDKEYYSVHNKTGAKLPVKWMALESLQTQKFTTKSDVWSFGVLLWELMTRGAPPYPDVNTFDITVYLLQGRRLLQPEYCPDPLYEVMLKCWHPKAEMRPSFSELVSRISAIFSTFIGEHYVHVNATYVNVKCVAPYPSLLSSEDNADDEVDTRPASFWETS

Structure (SMILES)	Met Kinase % Inhibition (P.130) [%]
O=C1Nc2ccc(S(=O)(=O)Nc3ccc(C(F)(F)F)cc3)cc2C1=Cc1cccc(F)c1O [10734/E08]	89.1
O=C1Nc2ccc(S(=O)(=O)Nc3ccc(C(F)(F)F)cc3)cc2C1=Cc1ccc(O)c(Br)c1 [10734/E09]	96.2
CC(C)(C)c1ccc(C=C2C(=O)Nc3ccc(S(=O)(=O)Nc4ccc(C(F)(F)F)cc4)cc32)cc1 [10734/E10]	27.9
O=C1Nc2ccc(S(=O)(=O)Nc3ccc(C(F)(F)F)cc3)cc2C1=Cc1ccc(Br)s1 [10734/E11]	67.1
CCOc1cccc(C=C2C(=O)Nc3ccc(S(=O)(=O)N4CCOCC4)cc32)c1O [10734/F02]	55.0
O=C1Nc2ccc(S(=O)(=O)N3CCOCC3)cc2C1=Cc1cc(Cl)cc(Cl)c1O [10734/F03]	86.8
O=C1Nc2ccc(S(=O)(=O)N3CCOCC3)cc2C1=Cc1cc(Cl)ccc1O [10734/F04]	76.5
CCN(CC)c1ccc(C=C2C(=O)Nc3ccc(S(=O)(=O)N4CCOCC4)cc32)c(O)c1 [10734/F05]	73.8
O=C1Nc2ccc(S(=O)(=O)N3CCOCC3)cc2C1=Cc1ccc([N+](=O)[O-])cc1 [10734/F06]	64.2
O=C1Nc2ccc(S(=O)(=O)N3CCOCC3)cc2C1=Cc1cc(Br)cc(Br)c1O [10734/F07]	95.7
O=C1Nc2ccc(S(=O)(=O)N3CCOCC3)cc2C1=Cc1cccc(F)c1O [10734/F08]	66.3
O=C1Nc2ccc(S(=O)(=O)N3CCOCC3)cc2C1=Cc1ccc(O)c(Br)c1 [10734/F09]	93.9
CC(C)(C)c1ccc(C=C2C(=O)Nc3ccc(S(=O)(=O)N4CCOCC4)cc32)cc1 [10734/F10]	44.8
O=C1Nc2ccc(S(=O)(=O)N3CCOCC3)cc2C1=Cc1ccc(Br)s1 [10734/F11]	47.3
CCOc1cccc(C=C2C(=O)Nc3ccc(CCCl)cc32)c1O [10734/G02]	63.6
O=C1Nc2ccc(CCCl)cc2C1=Cc1cc(Cl)cc(Cl)c1O [10734/G03]	93.4
O=C1Nc2ccc(CCCl)cc2C1=Cc1cc(Cl)ccc1O [10734/G04]	72.1
CCN(CC)c1ccc(C=C2C(=O)Nc3ccc(CCCl)cc32)c(O)c1 [10734/G05]	57.7
O=C1Nc2ccc(CCCl)cc2C1=Cc1ccc([N+](=O)[O-])cc1 [10734/G06]	43.1
O=C1Nc2ccc(CCCl)cc2C1=Cc1cc(Br)cc(Br)c1O [10734/G07]	96.6
O=C1Nc2ccc(CCCl)cc2C1=Cc1cccc(F)c1O [10734/G08]	82.2
O=C1Nc2ccc(CCCl)cc2C1=Cc1ccc(O)c(Br)c1 [10734/G09]	84.7
CC(C)(C)c1ccc(C=C2C(=O)Nc3ccc(CCCl)cc32)cc1 [10734/G10]	19.3
O=C1Nc2ccc(CCCl)cc2C1=Cc1ccc(Br)s1 [10734/G11]	20.2
CCOc1cccc(C=C2C(=O)Nc3c(Br)cc(Br)c(C)c32)c1O [10734/H02]	48.3
Cc1c(Br)cc(Br)c2c1C(=Cc1cc(Cl)cc(Cl)c1O)C(=O)N2 [10734/H03]	90.3
Cc1c(Br)cc(Br)c2c1C(=Cc1cc(Cl)ccc1O)C(=O)N2 [10734/H04]	64.2
